Source: the NIST ThermoML archive (doi:10.1021/acs.jced.7b00159)
± gives the expanded uncertainty stated by the source.

Details: Liquid, Pendant drop shape

CCCCCCCCCCCC [dodecane] + O=C=O
interfacial tension [mN/m]
Details | 323.15 K | 353.15 K
1100 kPa | 19.27 ± 1 | 16.94 ± 1
2100 kPa | 17.29 ± 1 | 16.02 ± 1
3100 kPa | – | 14.66 ± 1
3600 kPa | 14.47 ± 1 | –
4100 kPa | 13.55 ± 1 | 13.4 ± 1
5100 kPa | – | 11.99 ± 1
6100 kPa | 9.51 ± 1 | 10.69 ± 1
7100 kPa | 7.68 ± 1 | 9.44 ± 1
8100 kPa | 5.57 ± 1 | 8.32 ± 1
9100 kPa | – | 6.96 ± 1
10100 kPa | – | 5.88 ± 1
11100 kPa | – | 4.8 ± 1

CCCCCCCCCCCCCCCCC [heptadecane] + O=C=O
interfacial tension [mN/m]
Details | 323.15 K | 353.15 K
1100 kPa | – | 18.47 ± 1
1200 kPa | 20.95 ± 1 | –
2100 kPa | – | 17.15 ± 1
2600 kPa | 18.3 ± 1 | –
3300 kPa | 16.99 ± 1 | 15.48 ± 1
4100 kPa | 15.49 ± 1 | 14.62 ± 1
5100 kPa | 13.95 ± 1 | –
5200 kPa | – | 13.38 ± 1
6100 kPa | 11.78 ± 1 | –
6720 kPa | – | 11.71 ± 1
7100 kPa | – | 11.26 ± 1
7300 kPa | 9.69 ± 1 | –
8120 kPa | 8.52 ± 1 | –
8150 kPa | – | 10.09 ± 1
9300 kPa | – | 9.14 ± 1
10100 kPa | 5.08 ± 1 | –
10600 kPa | – | 7.78 ± 1
12600 kPa | – | 5.78 ± 1
14100 kPa | – | 4.3 ± 1
15100 kPa | – | 3.57 ± 1
16200 kPa | – | 2.81 ± 1

CCCCCCCCCCCCCC [tetradecane] + O=C=O
interfacial tension [mN/m]
Details | 323.15 K | 353.15 K
1050 kPa | 20.79 ± 1 | –
1200 kPa | – | 18.19 ± 1
2100 kPa | – | 17.01 ± 1
2110 kPa | 18.89 ± 1 | –
3050 kPa | 17.05 ± 1 | –
3200 kPa | – | 15.62 ± 1
3950 kPa | 15.41 ± 1 | –
4040 kPa | – | 14.48 ± 1
5020 kPa | 13.51 ± 1 | –
5120 kPa | – | 13.21 ± 1
5960 kPa | 11.59 ± 1 | –
6110 kPa | – | 12.2 ± 1
7030 kPa | 9.79 ± 1 | –
7090 kPa | – | 10.94 ± 1
8000 kPa | 8.27 ± 1 | –
8090 kPa | – | 9.9 ± 1
8940 kPa | 6.5 ± 1 | –
9020 kPa | 6.35 ± 1 | –
10050 kPa | 3.98 ± 1 | 7.61 ± 1
11120 kPa | – | 6.5 ± 1
12010 kPa | – | 5.5 ± 1

CCCCCCCCCCCCCCCC [hexadecane] + O=C=O
Details | interfacial tension [mN/m]
323.15 K, 1030 kPa | 21.5 ± 1
323.15 K, 2050 kPa | 19.61 ± 1
323.15 K, 2960 kPa | 17.95 ± 1
323.15 K, 4010 kPa | 15.94 ± 1
323.15 K, 5020 kPa | 14.12 ± 1
323.15 K, 5960 kPa | 12.43 ± 1
323.15 K, 7000 kPa | 10.52 ± 1
323.15 K, 8020 kPa | 8.71 ± 1
323.15 K, 8960 kPa | 6.98 ± 1
323.15 K, 9040 kPa | 7.5 ± 1
323.15 K, 10020 kPa | 5.02 ± 1
353.15 K, 1200 kPa | 18.68 ± 1
353.15 K, 2100 kPa | 17.48 ± 1
353.15 K, 3200 kPa | 16.05 ± 1
353.15 K, 4040 kPa | 14.99 ± 1
353.15 K, 5120 kPa | 13.67 ± 1
353.15 K, 6110 kPa | 12.5 ± 1
353.15 K, 7090 kPa | 11.37 ± 1
353.15 K, 8090 kPa | 10.25 ± 1
353.15 K, 8990 kPa | 9.28 ± 1
353.15 K, 10050 kPa | 8.1 ± 1
353.15 K, 11120 kPa | 7.11 ± 1
353.15 K, 12010 kPa | 6.12 ± 1

CCCCCCCCCCCCC [tridecane] + O=C=O
interfacial tension [mN/m]
Details | 323.15 K | 353.15 K
1100 kPa | 20 ± 1 | –
1500 kPa | – | 17.72 ± 1
2100 kPa | 18.27 ± 1 | –
2600 kPa | – | 16.09 ± 1
4100 kPa | 14.42 ± 1 | 14.09 ± 1
5100 kPa | 12.93 ± 1 | 12.85 ± 1
6100 kPa | 11.47 ± 1 | 12.02 ± 1
7100 kPa | 9.42 ± 1 | 10.41 ± 1
8100 kPa | – | 9.58 ± 1
8600 kPa | 6.83 ± 1 | –
9100 kPa | – | 8.18 ± 1
9600 kPa | 4.91 ± 1 | –
10100 kPa | – | 7.07 ± 1
10600 kPa | 2.83 ± 1 | –
11100 kPa | – | 6.1 ± 1
12100 kPa | – | 4.84 ± 1
13100 kPa | – | 3.89 ± 1
14100 kPa | – | 3.14 ± 1
15100 kPa | – | 2.21 ± 1
16100 kPa | – | 1.68 ± 1
17100 kPa | – | 1.14 ± 1

CCCCCCCCCCCCCCCCCCC [nonadecane] + O=C=O
interfacial tension [mN/m]
Details | 323.15 K | 353.15 K
1100 kPa | – | 19.52 ± 1
2060 kPa | – | 18.23 ± 1
2400 kPa | 20.57 ± 1 | –
3100 kPa | – | 16.88 ± 1
3200 kPa | 18.91 ± 1 | –
4140 kPa | – | 15.58 ± 1
4200 kPa | 17.25 ± 1 | –
5050 kPa | 15.27 ± 1 | –
5140 kPa | – | 14.35 ± 1
6060 kPa | – | 13.27 ± 1
6150 kPa | 12.93 ± 1 | –
7100 kPa | 11.35 ± 1 | –
7120 kPa | – | 12.06 ± 1
8050 kPa | – | 11.03 ± 1
8200 kPa | 9.61 ± 1 | –
9200 kPa | 7.78 ± 1 | 9.76 ± 1
10000 kPa | 6.39 ± 1 | –
10020 kPa | – | 8.94 ± 1
11100 kPa | – | 7.87 ± 1
12000 kPa | – | 7 ± 1
13070 kPa | – | 5.97 ± 1
14040 kPa | – | 5.08 ± 1

CCCCCCCCCCCCCCCCCCCC [eicosane] + O=C=O
353.15 K
Details | interfacial tension [mN/m]
1000 kPa | 20.35 ± 1
2000 kPa | 18.99 ± 1
4000 kPa | 16.13 ± 1
6000 kPa | 13.37 ± 1
8000 kPa | 10.34 ± 1
10000 kPa | 7.85 ± 1
12000 kPa | 5.55 ± 1
14000 kPa | 3.71 ± 1
16000 kPa | 2.38 ± 1

CCCCCCCCCCCCCCCCCC [octadecane] + O=C=O
interfacial tension [mN/m]
Details | 323.15 K | 353.15 K
400 kPa | – | 20.05 ± 1
410 kPa | 23.35 ± 1 | –
1100 kPa | – | 19.16 ± 1
1300 kPa | 21.23 ± 1 | –
2000 kPa | 18.53 ± 1 | –
2200 kPa | – | 17.73 ± 1
2670 kPa | 17.13 ± 1 | –
3200 kPa | 15.63 ± 1 | –
3300 kPa | – | 16.22 ± 1
4000 kPa | 14.12 ± 1 | –
4180 kPa | – | 15.13 ± 1
5100 kPa | 11.94 ± 1 | –
5300 kPa | – | 13.86 ± 1
6150 kPa | – | 12.92 ± 1
6250 kPa | 9.84 ± 1 | –
7000 kPa | 8.65 ± 1 | –
7200 kPa | – | 11.8 ± 1
8100 kPa | – | 10.68 ± 1
8150 kPa | 5.07 ± 1 | –
9100 kPa | 3.15 ± 1 | –
9300 kPa | – | 9.66 ± 1
10100 kPa | 1.83 ± 1 | 8.87 ± 1
11100 kPa | – | 7.66 ± 1
12100 kPa | – | 6.63 ± 1
13000 kPa | – | 5.74 ± 1
14000 kPa | – | 4.91 ± 1
15000 kPa | – | 4.05 ± 1
16300 kPa | – | 3.08 ± 1
17400 kPa | – | 2.49 ± 1

CCCCCCCCCCCCCCC [pentadecane] + O=C=O
interfacial tension [mN/m]
Details | 323.15 K | 353.15 K
1050 kPa | 21.31 ± 1 | –
1500 kPa | – | 18.19 ± 1
2100 kPa | – | 17.27 ± 1
2130 kPa | 19.32 ± 1 | –
3100 kPa | 17.53 ± 1 | 16.23 ± 1
4050 kPa | 15.63 ± 1 | –
4200 kPa | – | 14.66 ± 1
5130 kPa | 13.49 ± 1 | –
5400 kPa | – | 13.29 ± 1
6100 kPa | 11.98 ± 1 | 12.36 ± 1
7100 kPa | 10.16 ± 1 | –
7900 kPa | – | 10.2 ± 1
8100 kPa | 8.46 ± 1 | –
8900 kPa | – | 8.9 ± 1
9000 kPa | 6.66 ± 1 | –
9600 kPa | 5.32 ± 1 | –
10000 kPa | – | 7.87 ± 1
10100 kPa | 4.72 ± 1 | –
11100 kPa | – | 6.78 ± 1
12100 kPa | – | 5.82 ± 1
13100 kPa | – | 4.66 ± 1
14100 kPa | – | 3.75 ± 1
15100 kPa | – | 3.06 ± 1

CCCCCCCCCC [decane] + O=C=O
interfacial tension [mN/m]
Details | 323.15 K | 353.15 K
900 kPa | 18.82 ± 1 | –
1200 kPa | – | 16.45 ± 1
2100 kPa | 16.35 ± 1 | 15.25 ± 1
2990 kPa | 14.77 ± 1 | –
3020 kPa | – | 14.07 ± 1
4100 kPa | 12.56 ± 1 | 12.52 ± 1
5100 kPa | – | 11.28 ± 1
6100 kPa | 8.43 ± 1 | 9.86 ± 1
7100 kPa | 6.85 ± 1 | –
7110 kPa | – | 8.6 ± 1
8100 kPa | 4.89 ± 1 | 7.85 ± 1
9100 kPa | – | 5.91 ± 1
10100 kPa | – | 4.65 ± 1

CCCCCCCCCCC [undecane] + O=C=O
interfacial tension [mN/m]
Details | 323.15 K | 353.15 K
1030 kPa | 19.26 ± 1 | –
1100 kPa | – | 17.09 ± 1
2100 kPa | 17.25 ± 1 | 15.83 ± 1
3100 kPa | 15.05 ± 1 | 14.38 ± 1
4100 kPa | 13.12 ± 1 | 13.17 ± 1
5100 kPa | 10.98 ± 1 | 11.69 ± 1
6100 kPa | 8.68 ± 1 | 10.45 ± 1
7100 kPa | 7.2 ± 1 | 9.31 ± 1
8100 kPa | 4.95 ± 1 | 7.45 ± 1
9100 kPa | – | 6.45 ± 1
10100 kPa | – | 5.59 ± 1
11100 kPa | – | 4.37 ± 1
12100 kPa | – | 3.39 ± 1
